Patent US20020103117A1, “Use of protein kinase-inhibitor-alpha” (priority 2000, published 2002)

Columns and labels:
protein kinase-A = test: Activity of protein kinase-A in cell cultures of myocytes; format: cell-based; details: cell cultures of myocytes (e.g., C9H2 cells)
Procedure: The protein-kinase-inhibitor alpha shortened to amino acids 14 to 22 was added to the cell cultures of myocytes (e.g., C9H2 cells, available from the American Type Culture Collection), and the activity of protein kinase-A was determined.
The 9-amino-acid-long PKI-alpha inhibitor (the gene product of the second open reader frame of the PKI gene in humans and in pigs) was added to the cell cultures of myocytes, and the expression of the PKI-alpha and the activity of protein kinase-A were determined.

functioning rat heart = test: Action of PKI-alpha on an isolated, perfused functioning rat heart; design: species or system Sprague Dawley rats
Procedure: Hearts from a total of six Sprague Dawley rats with a weight of about 300 g were isolated and perfused as described in Schulze et al. (Schulze et al.; Circulation 1990: 959-69). The hemodynamic parameters including contractility, external heart work (EHW), coronary and aortic flow were recorded about 15 minutes after antegrade perfusion. Cell-permeable, recombinant PKI-alpha (amino acids 14 to 22, Calbiochem #476485) was then administered. The compound was infused directly into the atrium canula using a motor pump. The infusion rate was continuously adapted to the emission volume (the sum of the aortic and coronary flow) and increased in five-minute intervals to reach the final PKI-alpha concentrations in the perfusate of 0.5, 1.0 and 2.0 μmol/l.

[1] = PKI-alpha in perfusate 0.5, 1.0 and 2.0 μmol/l

Substance: shortened PKI-alpha: Cell-permeable, recombinant PKI-alpha comprising only amino acids 14 to 22 of the complete sequence, Calbiochem #476485
- activity of protein kinase-A (protein kinase-A): dose-dependent reduction of activity
- decrease of the left ventricular function, expressed as dp/dt-max (functioning rat heart; [1]): 53%
- reduction of the external heart work (functioning rat heart; [1]): 43%
- depression of the myocardial function (functioning rat heart; infusion up to 2 μmol): pronounced, reversible, concentration-dependent (up to 2 μmol) depression of the myocardial function
